Results published in patent US20100137313A1 (ASTRAZENECA AB, priority 2008, published 2010).

What follows are compounds tested against S. pneumoniae Topoisomerase IV ATPase (ParE) (Streptococcus pneumoniae serotype 4, UniProt Q59961) (assay: S. pneumoniae Topoisomerase IV ATPase inhibition). Conditions: values marked * are an average of two or more data points, read-out: % Inh (13 μM) of S. pneumoniae Topoisomerase IV ATPase.
Sequence of S. pneumoniae Topoisomerase IV ATPase (ParE) (Q59961 whole entry): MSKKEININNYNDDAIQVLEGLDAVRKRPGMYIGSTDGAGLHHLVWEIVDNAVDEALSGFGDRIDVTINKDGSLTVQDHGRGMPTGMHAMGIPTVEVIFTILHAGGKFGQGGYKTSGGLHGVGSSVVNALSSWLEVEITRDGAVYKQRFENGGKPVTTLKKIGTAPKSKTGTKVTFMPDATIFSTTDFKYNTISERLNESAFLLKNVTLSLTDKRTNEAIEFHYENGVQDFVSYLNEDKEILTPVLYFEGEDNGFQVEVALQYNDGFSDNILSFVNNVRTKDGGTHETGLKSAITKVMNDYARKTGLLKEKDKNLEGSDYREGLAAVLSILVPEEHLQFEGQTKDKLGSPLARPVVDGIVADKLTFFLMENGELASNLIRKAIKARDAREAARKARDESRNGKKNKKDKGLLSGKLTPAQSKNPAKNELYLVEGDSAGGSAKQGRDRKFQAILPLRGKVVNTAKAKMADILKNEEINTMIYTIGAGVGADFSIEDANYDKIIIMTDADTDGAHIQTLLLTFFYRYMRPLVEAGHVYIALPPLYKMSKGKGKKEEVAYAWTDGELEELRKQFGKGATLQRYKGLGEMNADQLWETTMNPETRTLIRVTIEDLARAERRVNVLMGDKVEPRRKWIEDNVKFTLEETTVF
Type: biochemical
Method in brief: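 Phosphate-release ATPase assay: 1.25 nM ParE, 160 μM ATP, DNA-stimulated. Quench with malachite green/molybdate in 1 M HCl, read 650 nm; IC50 from 10-point dose series.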
N#Cc1cc(Cl)cc(Nc2ncc(-c3cncc(C(=O)O)c3)c(N3CCOCC3)n2)c1 [Example 392, 5-[2-(3-Chloro-5-cyano-phenylamino)-4-morpholin-4-yl-pyrimidin-5-yl]-nicotinic acid] was tested, and the inhibition at 13 µM was 74%. O=C(O)c1cncc(-c2cnc(Nc3ccc(F)c(Cl)c3)nc2N2CCOCC2)c1 [Example 273, 5-(2-(3-chloro-4-fluorophenylamino)-4-morpholinopyrimidin-5-yl)nicotinic acid] was tested, and the inhibition at 13 µM was 94.4%. Compound CCOC(=O)/C=C/c1cccc(-c2cnc(Nc3ccc(F)c(Cl)c3)nc2N2CCOCC2)c1 [Example 166, (E)-ethyl 3-(3-(2-(3-chloro-4-fluorophenylamino)-4-morpholinopyrimidin-5-yl)phenyl)acrylate] has an inhibition at 13 µM of 37.4%. With O=C(O)/C=C/c1cccc(-c2cnc(Nc3ccc(F)c(Cl)c3)nc2-n2cc(-c3ccncn3)cn2)c1 [Example 568, (2E)-3-(3-{2-[(3-chloro-4-fluorophenyl)amino]-4-[4-(pyrimidin-4-yl)-1H-pyrazol-1-yl]pyrimidin-5-yl}phenyl)prop-2-enoic acid] the inhibition at 13 µM was 100%. With O=C(O)/C=C/c1cccc(-c2cnc(Nc3ccc(F)c(Cl)c3)nc2-n2ccc(C(F)(F)F)n2)c1 [Example 323, (2E)-3-(3-{2-[(3-chloro-4-fluorophenyl)amino]-4-[3-(trifluoromethyl)-1H-pyrazol-1-yl]pyrimidin-5-yl}phenyl)prop-2-enoic acid] the inhibition at 13 µM was 99.5%. With COc1cc(-c2cnc(Nc3ccc(F)c(Cl)c3)nc2NCCCN(C)C)cc(OC)c1OC [Example 10, N^2-(3-chloro-4-fluorophenyl)-N^4-(3-(dimethylamino)propyl)-5-(3,4,5-trimethoxyphenyl)pyrimidin-2,4-diamine] the inhibition at 13 µM was 99.3%. For O=S1(=O)CCN(CCCNc2nc(Nc3ccc(F)c(Cl)c3)ncc2-c2cncnc2)CC1 [Example 48, N^2-(3-chloro-4-fluorophenyl)-N^4-[3-(1,1-dioxo-1,4-thiazinan-4-yl)propyl]-5-pyrimidin-5-ylpyrimidine-2,4-diamine], the inhibition at 13 µM was 79.8%. O=C(O)/C=C/c1cccc(-c2cnc(Nc3ccc(F)c(Cl)c3)nc2NCCc2nc3ccccc3[nH]2)c1 [Example 265, (2E)-3-[3-(4-{[2-(1H-benzimidazol-2-yl)ethyl]amino}-2-[(3-chloro-4-fluorophenyl)amino]pyrimidin-5-yl)phenyl]prop-2-enoic acid] showed an inhibition at 13 µM of 84.9%. For CCOC(=O)c1cncc(-c2cnc(Nc3ccc(F)c(Cl)c3)nc2N[C@H](C)C(=O)OC)c1 [Example 113, ethyl 5-[2-[(3-chloro-4-fluorophenyl)amino]-4-[[(2R)-1-methoxy-1-oxopropan-2-yl]amino]pyrimidin-5-yl]pyridine-3-carboxylate], the inhibition at 13 µM was 34.3%. Compound COc1cc(Nc2ncc(-c3cncc(C(=O)O)c3)c(-n3nc(C(F)(F)F)cc3C)n2)cc(C(F)(F)F)c1 [Example 913, 5-(2-(3-methoxy-5-(trifluoromethyl)phenylamino)-4-(5-methyl-3-(trifluoromethyl)-1H-pyrazol-1-yl)pyrimidin-5-yl)nicotinic acid] has an inhibition at 13 µM of 100%. For CCOC(=O)/C=C/c1cccc(-c2cnc(Nc3ccc(F)c(Cl)c3)nc2NCc2cnn(C)c2)c1 [Example 168, (E)-ethyl 3-(3-(2-(3-chloro-4-fluorophenylamino)-4-((1-methyl-1H-pyrazol-4-yl)methylamino)pyrimidin-5-yl)phenyl)acrylate], the inhibition at 13 µM was 66.4%. Work on CC(=O)NC1CCN(c2nc(Nc3ccc(F)c(Cl)c3)ncc2-c2cncnc2)CC1 [Example 69, N-[1-[2-[(3-chloro-4-fluorophenyl)amino]-5-pyrimidin-5-ylpyrimidin-4-yl]piperidin-4-yl]acetamide] yielded an inhibition at 13 µM of 77%. In the case of COC1CCN(c2nc(Nc3ccc(F)c(Cl)c3)ncc2-c2cncc(C(=O)O)c2)CC1 [Example 249, 5-[2-[(3-chloro-4-fluorophenyl)amino]-4-(4-methoxypiperidin-1-yl)pyrimidin-5-yl]pyridine-3-carboxylic acid], the inhibition at 13 µM is reported as 70.8%. CCOC(=O)c1sc(-c2cnc(Nc3ccc(F)c(Cl)c3)nc2NCCCOC)nc1-c1ccccn1 [Example 507, ethyl 2-{2-[(3-chloro-4-fluorophenyl)amino]-4-[(3-methoxypropyl)amino]pyrimidin-5-yl}-4-(pyridin-2-yl)-1,3-thiazole-5-carboxylate] was tested, and the inhibition at 13 µM was 74%. COC(=O)c1cc2ccc(-c3cnc(Nc4ccc(F)c(Cl)c4)nc3N3CCOCC3)cc2[nH]1 [Example 1053, Methyl 6-(2-(3-chloro-4-fluorophenylamino)-4-morpholinopyrimidin-5-yl)-1H-indole-2-carboxylate] showed an inhibition at 13 µM of 0%. CCOC(=O)c1sc(-c2cnc(Nc3ccc(F)c(Cl)c3)nc2NCCCOC)nc1-c1ccccc1 [Example 506, ethyl 2-{2-[(3-chloro-4-fluorophenyl)amino]-4-[(3-methoxypropyl)amino]pyrimidin-5-yl}-4-phenyl-1,3-thiazole-5-carboxylate] showed an inhibition at 13 µM of 33%. Work on O=C(O)c1cncc(-c2cnc(Nc3ccc(F)c(Cl)c3)nc2NCCCc2nc3ccccc3[nH]2)c1 [Example 271, 5-(4-(3-(1H-benzo[d]imidazol-2-yl)propylamino)-2-(3-chloro-4-fluorophenylamino)-pyrimidin-5-yl)nicotinic acid] yielded an inhibition at 13 µM of 86.6%. Work on COc1ncc(-c2cnc(Nc3cc(C)cc(C)c3)nc2-n2nc(C(F)(F)F)cc2C)cc1C(=O)O [Example 646, 5-{2-[(3,5-dimethylphenyl)amino]-4-[5-methyl-3-(trifluoromethyl)-1H-pyrazol-1-yl]pyrimidin-5-yl}-2-methoxypyridine-3-carboxylic acid] yielded an inhibition at 13 µM of 100%. CN(C)CCCNc1nc(Nc2ccc(F)c(Cl)c2)ncc1-c1ccc(C(=O)N2CCCCC2)s1 [Example 369, (5-(2-(3-chloro-4-fluorophenylamino)-4-(3-(dimethylamino)propylamino)pyrimidin-5-yl)thiophen-2-yl) (piperidin-1-yl) methanone] showed an inhibition at 13 µM of 122%. In the case of O=C(O)/C=C/c1cccc(-c2cnc(Nc3ccc(F)c(Br)c3)nc2N2CCOCC2)c1 [Example 454], the inhibition at 13 µM is reported as 92%. Work on Fc1ccc(Nc2ncc(-c3cncnc3)c(NCCCN3CCOCC3)n2)cc1Cl [Example 49, N^2-(3-chloro-4-fluorophenyl)-N^4-(3-morpholin-4-ylpropyl)-5-pyrimidin-5-ylpyrimidine-2,4-diamine] yielded an inhibition at 13 µM of 85.6%. With COc1ncc(-c2cnc(Nc3cc(C)cc(C)c3)nc2-n2ccc(C(F)(F)F)n2)cc1C(=O)O [Example 648, 5-{2-[(3,5-dimethylphenyl)amino]-4-[3-(trifluoromethyl)-1H-pyrazol-1-yl]pyrimidin-5-yl}-2-methoxypyridine-3-carboxylic acid] the inhibition at 13 µM was 100%. O=C(O)/C=C/c1cccc(-c2cnc(Nc3ccc(F)c(Cl)c3)nc2NCCn2ccnc2)c1 [Example 266, (2E)-3-[3-(2-[(3-chloro-4-fluorophenyl)amino]-4-{[2-(1H-imidazol-1-yl)ethyl]amino}pyrimidin-5-yl)phenyl]prop-2-enoic acid] gave an inhibition at 13 µM of 109%. For COc1ncc(-c2cnc(Nc3cc(C)ccc3F)nc2-n2ccc(C(F)(F)F)n2)cc1C(=O)O [Example 756, 5-{2-[(2-fluoro-5-methylphenyl)amino]-4-[3-(trifluoromethyl)-1H-pyrazol-1-yl]pyrimidin-5-yl}-2-methoxypyridine-3-carboxylic acid], the inhibition at 13 µM was 56%. CCOC(=O)c1cncc(-c2cnc(Nc3ccc(F)c(Cl)c3)nc2NCCCOC)c1 [Example 143, ethyl 5-(2-(3-chloro-4-fluorophenylamino)-4-(3-methoxypropylamino)pyrimidin-5-yl)nicotinate] showed an inhibition at 13 µM of 88.6%. O=C(O)c1cncc(-c2cnc(Nc3ccc(F)c(Cl)c3)nc2NCCCN2CCCC2=O)c1 [Example 219, 5-{2-(3-Chloro-4-fluoro-phenylamino)-4-[3-(2-oxo-pyrrolidin-1-yl)-propylamino]-pyrimidin-5-yl}-nicotinic acid] gave an inhibition at 13 µM of 79%. Work on COc1cc(Cl)cc(Nc2ncc(-c3cnc(OC)c(C(=O)O)c3)c(-n3nc(C(F)(F)F)cc3C)n2)c1 [Example 759, 5-{2-[(3-chloro-5-methoxyphenyl)amino]-4-[5-methyl-3-(trifluoromethyl)-1H-pyrazol-1-yl]pyrimidin-5-yl}-2-methoxypyridine-3-carboxylic acid] yielded an inhibition at 13 µM of 100%. Compound O=C(O)c1cncc(-c2cnc(Nc3ccc(F)c(Cl)c3)nc2-n2nccn2)c1 [Example 317, 5-{4-(2H-1,2,3-triazol-2-yl)-2-[(3-chloro-4-fluorophenyl)amino]pyrimidin-5-yl}pyridine-3-carboxylic acid] has an inhibition at 13 µM of 84.9%. Cc1cc(Nc2ncc(-c3cccc(/C=C/C(=O)O)c3)c(N3CCOCC3)n2)ccc1F [Example 450] gave an inhibition at 13 µM of 86%. Work on COc1cc(Nc2ncc(-c3cnc(OC)c(-c4nnn[nH]4)c3)c(-n3nc(C(F)(F)F)cc3C)n2)cc(OC)c1 [Example 873, N-(3,5-dimethoxyphenyl)-5-(6-methoxy-5-(1H-tetrazol-5-yl)pyridin-3-yl)-4-(5-methyl-3-(trifluoromethyl)-1H-pyrazol-1-yl)pyrimidin-2-amine] yielded an inhibition at 13 µM of 100%. For CCOC(=O)c1cncc(-c2cnc(Nc3ccc(F)c(Cl)c3)nc2NCCOC(C)C)c1 [Example 109, ethyl 5-[2-[(3-chloro-4-fluorophenyl)amino]-4-(2-propan-2-yloxyethylamino)pyrimidin-5-yl]pyridine-3-carboxylate], the inhibition at 13 µM was 52.4%. With COc1cc(Nc2ncc(-c3cccc(/C=C/C(=O)O)c3)c(-n3nc(C(F)(F)F)cc3C)n2)cc(S(C)(=O)=O)c1 [Example 653] the inhibition at 13 µM was 86%. In the case of Cc1cc(C(F)(F)F)nn1-c1nc(Nc2ccc(F)c(Cl)c2)ncc1-c1cnc(OCCO)c(C(=O)O)c1 [Example 1134, 5-(2-(3-chloro-4-fluorophenylamino)-4-(5-methyl-3-(trifluoromethyl)-1H-pyrazol-1-yl)pyrimidin-5-yl)-2-(2-hydroxyethoxy)nicotinic acid], the inhibition at 13 µM is reported as 100%.
